In ChEMBL document CHEMBL1629473, “Convenient synthesis and biological profile of 5-amino-substituted 1,2,4-oxadiazole derivatives” (Eur J Med Chem, 2010):

Tested on: Radical scavenging activity
Assay: Antioxidant activity assessed as DPPH free radical scavenging activity at 50 uM after 60 mins
Type: functional
Details: not given

Row | SMILES | Activity [%]
1 | Cc1ccc(/C(N)=N/O)cc1 | 14
2 | COc1ccc(C(=N)NO)cc1 | 44
3 | CC(Cc1ccc(O)c(O)c1)C(C)Cc1ccc(O)c(O)c1 (configuration not stated) | 81

Tested on: Rattus norvegicus
Assay: Antiinflammatory activity in Fisher 344 rat assessed as inhibition of carrageenan-induced paw edema at 0.01 mmol/kg, ip measured 3.5 hrs after carrageenan challenge relative to control
Type: functional
Design: scale not given: the % may be the effect or the level left
Details: not given

Row | SMILES | Activity [%]
4 | COc1ccc2c(c1)c(CC(=O)O)c(C)n2C(=O)c1ccc(Cl)cc1 [INDOMETHACIN] | 47
5 | c1ccc(-c2noc(NC3CCCCC3)n2)cc1 | 51
6 | N/C(=N\O)c1cccc([N+](=O)[O-])c1 | 26
7 | CC(C)Nc1nc(Cc2ccc(Cl)cc2)no1 | 43
8 | Cc1ccc(/C(N)=N/O)cc1 | 41
9 | COc1ccc(C(=N)NO)cc1 | 45
10 | Cc1ccc(-c2noc(NC3CCCCC3)n2)cc1 | 33
11 | N/C(Cc1ccc(Cl)cc1)=N\O | 47
12 | O=[N+]([O-])c1cccc(-c2noc(NC3CCCCC3)n2)c1 | 40

Tested on: not listed separately
Assay: Induction of NO release in phosphate buffer pH 7.4 containing 1 mM L-cysteine assessed as nitrite level at 100 uM after 60 mins by Griess assay
Type: physicochemical
Details: pH 7.4, 1 h

Row | Activity [%] | SMILES
13 | 2 | c1ccc(-c2noc(NC3CCCCC3)n2)cc1
14 | 5 | COc1ccc(C(=N)NO)cc1
15 | 2 | COc1ccc(-c2noc(NC3CCCCC3)n2)cc1
16 | 18 | CC(=O)N(c1nc(Cc2ccc(Cl)cc2)no1)C1CCCCC1
17 | 8 | CC(=O)N(c1nc(-c2ccc([N+](=O)[O-])cc2)no1)C1CCCCC1
18 | 33 | CC(=O)N(c1nc(-c2cccc([N+](=O)[O-])c2)no1)C1CCCCC1

Tested on: Radical scavenging activity
Assay: Antioxidant activity assessed as DPPH free radical scavenging activity at 100 uM after 60 mins
Type: functional
Details: not given

Row | SMILES | Activity [%]
19 | c1ccc(Cc2noc(NC3CCCCC3)n2)cc1 | 9
20 | CC(C)Nc1nc(-c2cccc([N+](=O)[O-])c2)no1 | 8
21 | N/C(=N\O)c1cccc([N+](=O)[O-])c1 | 15
22 | CC(C)Nc1nc(C2CCCCC2)no1 | 11
23 | CC(C)Nc1nc(Cc2ccc(Cl)cc2)no1 | 11
24 | Cc1ccc(-c2noc(NC(C)C)n2)cc1 | 18
25 | Cc1ccc(/C(N)=N/O)cc1 | 26
26 | Cc1ccc(-c2noc(NCCCN(C)C)n2)cc1 | 8
27 | COc1ccc(C(=N)NO)cc1 | 57
28 | N/C(=N\O)c1ccccc1 | 30
29 | CCCc1noc(NC(C)C)n1 | 7
30 | CC(=O)N(c1nc(Cc2ccc(Cl)cc2)no1)C1CCCCC1 | 5
31 | N/C(=N\O)c1ccc([N+](=O)[O-])cc1 | 18
32 | CCNc1nc(-c2ccc([N+](=O)[O-])cc2)no1 | 9
33 | O=[N+]([O-])c1ccc(Cc2noc(NC3CCCCC3)n2)cc1 | 7
34 | Clc1ccc(Cc2noc(NC3CCCCC3)n2)cc1 | 7
35 | CN(C)CCCNc1nc(-c2ccc([N+](=O)[O-])cc2)no1 | 4
36 | N/C(Cc1ccc(Cl)cc1)=N\O | 16
37 | CC(=O)N(c1nc(-c2ccc([N+](=O)[O-])cc2)no1)C1CCCCC1 | 4
38 | O=[N+]([O-])c1cccc(-c2noc(NC3CCCCC3)n2)c1 | 11
39 | CC(=O)N(c1nc(-c2cccc([N+](=O)[O-])c2)no1)C1CCCCC1 | 2
40 | CC(=O)N(c1nc(-c2cccc([N+](=O)[O-])c2)no1)C(C)C | 4
41 | CC(Cc1ccc(O)c(O)c1)C(C)Cc1ccc(O)c(O)c1 (configuration not stated) | 91
42 | CC(=O)N(c1nc(-c2ccc(C)cc2)no1)C1CCCCC1 | 3

Tested on: Radical scavenging activity
Assay: Antioxidant activity assessed as DPPH free radical scavenging activity at 100 uM after 20 mins
Type: functional
Details: not given

Row | SMILES | Activity [%]
43 | c1ccc(Cc2noc(NC3CCCCC3)n2)cc1 | 9
44 | CC(C)Nc1nc(-c2cccc([N+](=O)[O-])c2)no1 | 6
45 | N/C(=N\O)c1cccc([N+](=O)[O-])c1 | 7
46 | CC(C)Nc1nc(C2CCCCC2)no1 | 8
47 | CC(C)Nc1nc(Cc2ccc(Cl)cc2)no1 | 8
48 | Cc1ccc(/C(N)=N/O)cc1 | 21
49 | Cc1ccc(-c2noc(NCCCN(C)C)n2)cc1 | 6
50 | COc1ccc(C(=N)NO)cc1 | 57
51 | N/C(=N\O)c1ccccc1 | 19
52 | CCCc1noc(NC(C)C)n1 | 7
53 | CC(=O)N(c1nc(Cc2ccc(Cl)cc2)no1)C1CCCCC1 | 2
54 | N/C(=N\O)c1ccc([N+](=O)[O-])cc1 | 9
55 | O=[N+]([O-])c1ccc(Cc2noc(NC3CCCCC3)n2)cc1 | 7
56 | Clc1ccc(Cc2noc(NC3CCCCC3)n2)cc1 | 7
57 | CN(C)CCCNc1nc(-c2ccc([N+](=O)[O-])cc2)no1 | 6
58 | CC(=O)N(c1nc(-c2ccc([N+](=O)[O-])cc2)no1)C1CCCCC1 | 3
59 | O=[N+]([O-])c1cccc(-c2noc(NC3CCCCC3)n2)c1 | 11
60 | CC(=O)N(c1nc(-c2cccc([N+](=O)[O-])c2)no1)C1CCCCC1 | 1
61 | CC(=O)N(c1nc(-c2cccc([N+](=O)[O-])c2)no1)C(C)C | 3
62 | CC(Cc1ccc(O)c(O)c1)C(C)Cc1ccc(O)c(O)c1 (configuration not stated) | 84
63 | CC(=O)N(c1nc(-c2ccc(C)cc2)no1)C1CCCCC1 | 3

Tested on: Radical scavenging activity
Assay: Antioxidant activity assessed as DPPH free radical scavenging activity at 50 uM after 20 mins
Type: functional
Details: not given

Row | SMILES | Activity [%]
64 | Cc1ccc(/C(N)=N/O)cc1 | 15
65 | COc1ccc(C(=N)NO)cc1 | 35
66 | N/C(=N\O)c1ccccc1 | 8
67 | CC(Cc1ccc(O)c(O)c1)C(C)Cc1ccc(O)c(O)c1 (configuration not stated) | 77

Tested on: not listed separately
Assay: Induction of NO release in phosphate buffer pH 7.4 containing 5 mM L-cysteine assessed as nitrite level at 100 uM after 60 mins by Griess assay
Type: physicochemical
Details: pH 7.4, 1 h

Row | SMILES | Activity [%]
68 | Cc1ccc(/C(N)=N/O)cc1 | 8
69 | COc1ccc(C(=N)NO)cc1 | 4

Further lines, results first:

Row | Activity [%] | SMILES
70 | 19 | c1ccc(-c2noc(NC3CCCCC3)n2)cc1
71 | 2 | CC(C)Nc1nc(Cc2ccc(Cl)cc2)no1
72 | 14 | COc1ccc(-c2noc(NC3CCCCC3)n2)cc1
73 | 12 | CC(=O)N(c1nc(Cc2ccc(Cl)cc2)no1)C1CCCCC1
74 | 8 | CC(=O)N(c1nc(-c2ccc([N+](=O)[O-])cc2)no1)C1CCCCC1
75 | 3 | O=[N+]([O-])c1cccc(-c2noc(NC3CCCCC3)n2)c1
76 | 33 | CC(=O)N(c1nc(-c2cccc([N+](=O)[O-])c2)no1)C1CCCCC1
77 | 4 | NC(=NO)c1cccc([N+](=O)[O-])c1

Tested on: not listed separately
Assay: Induction of NO release in phosphate buffer pH 7.4 containing 0.5 mM thiophenol assessed as nitrite level at 100 uM after 60 mins by Griess assay
Type: physicochemical
Details: pH 7.4, 1 h

Row | SMILES | Activity [%]
78 | c1ccc(Cc2noc(NC3CCCCC3)n2)cc1 | 7.5
79 | NC(=NO)c1ccccc1 [BENZAMIDOXIME] | 6
80 | NC(Cc1ccc(Cl)cc1)=NO | 3

Next, values leading:

Row | Activity [%] | SMILES
81 | 7 | CC(C)Nc1nc(-c2cccc([N+](=O)[O-])c2)no1
82 | 4 | CC(C)Nc1nc(Cc2ccc(Cl)cc2)no1
83 | 21 | Cc1ccc(-c2noc(NCCCN(C)C)n2)cc1
84 | 39 | CC(=O)N(c1nc(Cc2ccc(Cl)cc2)no1)C1CCCCC1
85 | 24 | CN(C)CCCNc1nc(-c2ccc([N+](=O)[O-])cc2)no1
86 | 47 | CC(=O)N(c1nc(-c2ccc([N+](=O)[O-])cc2)no1)C1CCCCC1
87 | 3 | O=[N+]([O-])c1cccc(-c2noc(NC3CCCCC3)n2)c1
88 | 71 | CC(=O)N(c1nc(-c2cccc([N+](=O)[O-])c2)no1)C1CCCCC1
89 | 55 | CC(=O)N(c1nc(-c2cccc([N+](=O)[O-])c2)no1)C(C)C

Target: Lipoxygenase (Glycine max) (UniProt Q39829)
Assay: Inhibition of soybean lipoxygenase at 100 uM by UV spectrophotometry
Design: scale not given: the % may be the effect or the level left
Details: not given

Row | SMILES | Activity [%]
90 | O=[N+]([O-])c1ccc(-c2noc(NC3CCCCC3)n2)cc1 | > 5
91 | N/C(Cc1ccc(Cl)cc1)=N\O | 19
92 | CC(Cc1ccc(O)c(O)c1)C(C)Cc1ccc(O)c(O)c1 (configuration not stated) | 83.7

Continued, values first:

Row | Activity [%] | SMILES
93 | 38 | c1ccc(-c2noc(NC3CCCCC3)n2)cc1
94 | 88 | CC(C)Nc1nc(-c2cccc([N+](=O)[O-])c2)no1
95 | 32 | N/C(=N\O)c1cccc([N+](=O)[O-])c1
96 | 24 | N/C(=N\O)c1ccc([N+](=O)[O-])cc1
97 | 67 | CN(C)CCCNc1nc(-c2ccc([N+](=O)[O-])cc2)no1
98 | 74 | O=[N+]([O-])c1cccc(-c2noc(NC3CCCCC3)n2)c1
99 | 25.5 | CC(=O)N(c1nc(-c2ccc(C)cc2)no1)C1CCCCC1

Tested on: not listed separately
Assay: Induction of NO release in phosphate buffer pH 7.4 containing 0.5 mM L-cysteine assessed as nitrite level at 100 uM after 60 mins by Griess assay
Type: physicochemical
Details: pH 7.4, 1 h

Row | SMILES | Activity [%]
100 | NC(=NO)c1ccccc1 [BENZAMIDOXIME] | 2
101 | COc1ccc(C(=N)NO)cc1 | 4

The remaining lines, values ahead:

Row | Activity [%] | SMILES
102 | 4 | c1ccc(-c2noc(NC3CCCCC3)n2)cc1
103 | 7.5 | Cc1ccc(-c2noc(NCCCN(C)C)n2)cc1
104 | 27.5 | CC(=O)N(c1nc(Cc2ccc(Cl)cc2)no1)C1CCCCC1
105 | 7 | CN(C)CCCNc1nc(-c2ccc([N+](=O)[O-])cc2)no1
106 | 12 | CC(=O)N(c1nc(-c2ccc([N+](=O)[O-])cc2)no1)C1CCCCC1
107 | 42.5 | CC(=O)N(c1nc(-c2cccc([N+](=O)[O-])c2)no1)C1CCCCC1
